Columns and labels:
Experiment in all cases: relative viability (nuclei count vs DMSO), 5 days (fraction); higher = more cells survive
[1] = compound: COc1cc(-c2nn([C@H]3CC[C@H](N4CCN(C(C)=O)CC4)CC3)c3ncnc(N)c23)ccc1NC(=O)c1cc2ccccc2n1C + CS(=O)(=O)N1CCN(Cc2cc3nc(-c4cccc5[nH]ncc45)nc(N4CCOCC4)c3s2)CC1 [Pictilisib] (partner 1 µM)
Procedure, shortened: (§1)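 Nuclei were stained with Hoechst during a one-step fixation (final 0.05% Triton X-100, 1% formaldehyde, 1 ug/ml Hoechst) carried out 5 days after dosing, then counted on 4× images. The cells, lung cancer lines in 1536-well plates, had been dosed by pin tool the day after seeding with one drug alone or a fixed anchor-drug dose plus five library-drug doses (not always all listed) in √10 steps. Relative viability is the nuclei count in treated wells divided by that in vehicle wells, and each value is the median of duplicate plates.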

[2] = compound: COc1cc(-c2nn([C@H]3CC[C@H](N4CCN(C(C)=O)CC4)CC3)c3ncnc(N)c23)ccc1NC(=O)c1cc2ccccc2n1C + CC1(C)CCC(c2ccc(Cl)cc2)=C(CN2CCN(c3ccc(C(=O)NS(=O)(=O)c4ccc(N[C@H](CCN5CCOCC5)CSc5ccccc5)c(S(=O)(=O)C(F)(F)F)c4)cc3)CC2)C1 [Navitoclax] (partner 0.5 µM)
Procedure, shortened: as §1

[3] = compound: COc1cc(-c2nn([C@H]3CC[C@H](N4CCN(C(C)=O)CC4)CC3)c3ncnc(N)c23)ccc1NC(=O)c1cc2ccccc2n1C + C[C@]1(O)C[C@@H](c2nc(-c3ccc4ccc(-c5ccccc5)nc4c3)c3c(N)nccn32)C1 [Linsitinib] (partner 1 µM)
Procedure, shortened: as §1

[4] = compound: CO[C@@H]1[C@H](N(C)C(=O)c2ccccc2)C[C@H]2O[C@]1(C)n1c3ccccc3c3c4c(c5c6ccccc6n2c5c31)C(=O)NC4 [Midostaurin] + O=C(CCCCCCC(=O)Nc1ccccc1)NO [Vorinostat] (partner 1 µM)
Procedure, shortened: as §1

[5] = compound: CO[C@@H]1[C@H](N(C)C(=O)c2ccccc2)C[C@H]2O[C@]1(C)n1c3ccccc3c3c4c(c5c6ccccc6n2c5c31)C(=O)NC4 [Midostaurin] + COc1cccc2cc(-c3nc([C@H]4CC[C@H](C(=O)O)CC4)n4ncnc(N)c34)[nH]c12 [OSI-027] (partner 0.5 µM)
Procedure, shortened: as §1

## BEN
[1]; first compound 0.0128 µM
  relative viability: 0.559
[1]; first compound 0.04048 µM
  relative viability: 0.54
[1]; first compound 0.128 µM
  relative viability: 0.58
[1]; first compound 1.28 µM
  relative viability: 0.432
[2]; first compound 0.0128 µM
  relative viability: 0.062
[2]; first compound 0.04048 µM
  relative viability: 0.261
[2]; first compound 0.128 µM
  relative viability: 0.0628
[2]; first compound 1.28 µM
  relative viability: 0.0568
[3]; first compound 0.0128 µM
  relative viability: 0.815
[3]; first compound 0.04048 µM
  relative viability: 0.926
[3]; first compound 0.128 µM
  relative viability: 0.851
[3]; first compound 1.28 µM
  relative viability: 0.644
[4]; first compound 0.01 µM
  relative viability: 0.594
[4]; first compound 0.03162 µM
  relative viability: 0.552
[4]; first compound 0.1 µM
  relative viability: 0.707
[4]; first compound 0.3162 µM
  relative viability: 0.598
[5]; first compound 0.01 µM
  relative viability: 0.324
[5]; first compound 0.03162 µM
  relative viability: 0.273
[5]; first compound 0.1 µM
  relative viability: 0.267
[5]; first compound 0.3162 µM
  relative viability: 0.32

## CAL-12T
[1]; first compound 0.0128 µM
  relative viability: 0.392
[1]; first compound 0.04048 µM
  relative viability: 0.397
[1]; first compound 0.128 µM
  relative viability: 0.512
[1]; first compound 1.28 µM
  relative viability: 0.281
[2]; first compound 0.0128 µM
  relative viability: 1.2
[2]; first compound 0.04048 µM
  relative viability: 1.41
[2]; first compound 0.128 µM
  relative viability: 1.27
[2]; first compound 1.28 µM
  relative viability: 1.44
[3]; first compound 0.0128 µM
  relative viability: 0.851
[3]; first compound 0.04048 µM
  relative viability: 0.533
[3]; first compound 0.128 µM
  relative viability: 0.801
[3]; first compound 1.28 µM
  relative viability: 0.74
[4]; first compound 0.01 µM
  relative viability: 0.689
[4]; first compound 0.03162 µM
  relative viability: 0.742
[4]; first compound 0.1 µM
  relative viability: 0.734
[4]; first compound 0.3162 µM
  relative viability: 0.457
[5]; first compound 0.01 µM
  relative viability: 0.779
[5]; first compound 0.03162 µM
  relative viability: 0.475
[5]; first compound 0.1 µM
  relative viability: 0.531
[5]; first compound 0.3162 µM
  relative viability: 0.307

## COR-L23
[1]; first compound 0.0128 µM
  relative viability: 0.919
[1]; first compound 0.04048 µM
  relative viability: 0.666
[1]; first compound 0.128 µM
  relative viability: 0.801
[1]; first compound 1.28 µM
  relative viability: 0.839
[2]; first compound 0.0128 µM
  relative viability: 0.972
[2]; first compound 0.04048 µM
  relative viability: 1.29
[2]; first compound 0.128 µM
  relative viability: 0.9
[2]; first compound 1.28 µM
  relative viability: 0.982
[3]; first compound 0.0128 µM
  relative viability: 0.866
[3]; first compound 0.04048 µM
  relative viability: 0.96
[3]; first compound 0.128 µM
  relative viability: 0.992
[3]; first compound 1.28 µM
  relative viability: 0.924
[4]; first compound 0.01 µM
  relative viability: 0.456
[4]; first compound 0.03162 µM
  relative viability: 0.311
[4]; first compound 0.1 µM
  relative viability: 0.276
[4]; first compound 0.3162 µM
  relative viability: 0.205
[5]; first compound 0.01 µM
  relative viability: 0.706
[5]; first compound 0.03162 µM
  relative viability: 0.681
[5]; first compound 0.1 µM
  relative viability: 0.795
[5]; first compound 0.3162 µM
  relative viability: 0.802

## COR-L 105
[1]; first compound 0.0128 µM
  relative viability: 0.417
[1]; first compound 0.04048 µM
  relative viability: 0.427
[1]; first compound 0.128 µM
  relative viability: 0.321
[1]; first compound 1.28 µM
  relative viability: 0.243
[2]; first compound 0.0128 µM
  relative viability: 0.728
[2]; first compound 0.04048 µM
  relative viability: 0.813
[2]; first compound 0.128 µM
  relative viability: 0.78
[2]; first compound 1.28 µM
  relative viability: 0.456
[3]; first compound 0.0128 µM
  relative viability: 1.04
[3]; first compound 0.04048 µM
  relative viability: 0.77
[3]; first compound 0.128 µM
  relative viability: 0.898
[3]; first compound 1.28 µM
  relative viability: 0.549
[4]; first compound 0.01 µM
  relative viability: 0.899
[4]; first compound 0.03162 µM
  relative viability: 0.846
[4]; first compound 0.1 µM
  relative viability: 0.702
[4]; first compound 0.3162 µM
  relative viability: 0.535
[5]; first compound 0.01 µM
  relative viability: 0.793
[5]; first compound 0.03162 µM
  relative viability: 0.548
[5]; first compound 0.1 µM
  relative viability: 0.607
[5]; first compound 0.3162 µM
  relative viability: 0.551

— the supplement of paper PMC10307832
